Laboratory results as given in patent US6737383B1, “Herbicidal oxadiazolidines” (priority 1999, dated 2004).

What was measured:
bedstraw = test: Test B pre/postemergence bedstraw; type: in vivo, Galium aparine
Summary of the method: (§1)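 Test chemicals in a non-phytotoxic solvent mixture with surfactant were sprayed preemergence onto planted seeds and postemergence onto plants 2 to 18 cm tall (1- to 4-leaf stage). After twelve to sixteen days in a greenhouse, injury was visually rated against untreated controls from 0 (no effect) to 10 (complete control).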

blackgrass = test: Test B pre/postemergence blackgrass; type: in vivo, Alopecurus myosuroides
Summary of the method: as §1

surinam grass = test: Test B pre/postemergence surinam grass; type: in vivo, Brachiaria decumbens
Summary of the method: as §1

cocklebur = test: Test B pre/postemergence cocklebur; type: in vivo, Xanthium strumarium
Summary of the method: as §1

crabgrass = test: Test B pre/postemergence crabgrass; type: in vivo, Digitaria sanguinalis
Summary of the method: as §1

giant foxtail = test: Test B pre/postemergence giant foxtail; type: in vivo, Setaria faberii
Summary of the method: as §1

morningglory = test: Test B pre/postemergence morningglory; type: in vivo, Ipomoea hederacea
Summary of the method: as §1

pigweed = test: Test B pre/postemergence pigweed; type: in vivo, Amaranthus retroflexus
Summary of the method: as §1

sugar beet = test: Test B pre/postemergence sugar beet; type: in vivo, Beta vulgaris
Summary of the method: as §1

velvetleaf = test: Test B pre/postemergence velvetleaf; type: in vivo, Abutilon theophrasti
Summary of the method: as §1

wheat = test: Test B pre/postemergence wheat; type: in vivo, Triticum aestivum
Summary of the method: as §1

wild oat = test: Test B pre/postemergence wild oat; type: in vivo, Avena fatua
Summary of the method: as §1

purple nutsedge = test: Test B pre/postemergence purple nutsedge; type: in vivo, Cyperus rotundus
Summary of the method: as §1

rice = test: Test B flood test rice; type: in vivo, Oryza sativa
Summary of the method: (§2)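 Read-out is a visual response score from 0 (no effect) to 10 (complete control), assigned by comparison with untreated controls. Treatment was applied at the 2-leaf stage, and plants stayed in the greenhouse for twelve to sixteen days before scoring.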

duck salad = test: Test B flood test duck salad; type: in vivo, Heteranthera limosa
Summary of the method: as §2

bamyardgrass = test: Test B flood test barnyardgrass; type: in vivo, Echinochloa crus-galli
Summary of the method: as §2

[1] = Postemergence, Rate 62 g/ha, scale 0 to 10, 0 is no effect, 10 is complete control
[2] = Postemergence, Rate 250 g/ha, scale 0 to 10, 0 no effect, 10 complete control
[3] = Preemergence, Rate 62 g/ha, scale 0 to 10 (0 no effect, 10 complete control)
[4] = Preemergence, Rate 125 g/ha, scale 0 to 10 (0 no effect, 10 complete control)
[5] = Preemergence, Rate 250 g/ha, scale of 0 to 10 where 0 is no effect and 10 is complete control
[6] = Preemergence, Rate 500 g/ha, scale 0 (no effect) to 10 (complete control)
[7] = Rate 125 g/ha, Postemergence, scale 0 to 10, 0 no effect, 10 complete control
[8] = Rate 500 g/ha, Postemergence, scale 0 to 10, 0 no effect, 10 complete control
[9] = Rate 125 g/ha, Postemergence section (flood test species), scale 0 to 10, 0 no effect, 10 complete control
[10] = Rate 500 g/ha, listed under Postemergence (flood test species), scale 0 to 10, 0 no effect, 10 complete control
[11] = flood test, listed under Postemergence, Rate 250 g/ha, scale 0 to 10, 0 no effect, 10 complete control

Cc1ccccc1Cn1c(=O)on(C(=O)N(C)c2ccccc2)c1=O [Compound 85]
0: Bedstraw plant response rating (bedstraw; [1]) | Bedstraw plant response rating (bedstraw; [2]) | Bedstraw plant response rating (bedstraw; [3]) | Plant response rating, Bedstraw (bedstraw; [4]) | Plant response rating, Bedstraw (bedstraw; [5]) | Bedstraw plant response rating (bedstraw; [6]) | Bedstraw plant response rating (bedstraw; [7]) | Bedstraw plant response rating (bedstraw; [8]) | Blackgrass plant response rating (blackgrass; [1]) | Blackgrass plant response rating (blackgrass; [2]) | Blackgrass plant response rating (blackgrass; [3]) | Plant response rating, Blackgrass (blackgrass; [4]) | Plant response rating, Blackgrass (blackgrass; [5]) | Blackgrass plant response rating (blackgrass; [6]) | Blackgrass plant response rating (blackgrass; [7]) | Blackgrass plant response rating (blackgrass; [8]) | B. signalgrass plant response rating (surinam grass; [1]) | B. signalgrass plant response rating (surinam grass; [2]) | B. signalgrass plant response rating (surinam grass; [3]) | Plant response rating, B. signalgrass (surinam grass; [4]) | Plant response rating, B. signalgrass (surinam grass; [5]) | B. signalgrass plant response rating (surinam grass; [6]) | B. signalgrass plant response rating (surinam grass; [7]) | B. signalgrass plant response rating (surinam grass; Rate 500 g/ha, Postemergence, scale of 0 to 10 where 0 is no effect and 10 is complete control) | Cocklebur plant response rating (cocklebur; [1]) | Cocklebur plant response rating (cocklebur; [2]) | Cocklebur plant response rating (cocklebur; [3]) | Plant response rating, Cocklebur (cocklebur; [4]) | Plant response rating, Cocklebur (cocklebur; [5]) | Cocklebur plant response rating (cocklebur; [6]) | Cocklebur plant response rating (cocklebur; [7]) | Cocklebur plant response rating (cocklebur; [8]) | Crabgrass plant response rating (crabgrass; [1]) | Crabgrass plant response rating (crabgrass; [2]) | Crabgrass plant response rating (crabgrass; [3]) | Plant response rating, Crabgrass (crabgrass; [4]) | Plant response rating, Crabgrass (crabgrass; [5]) | Crabgrass plant response rating (crabgrass; [6]) | Crabgrass plant response rating (crabgrass; [7]) | Crabgrass plant response rating (crabgrass; [8]) | Giant foxtail plant response rating (giant foxtail; [1]) | Giant foxtail plant response rating (giant foxtail; [2]) | Giant foxtail plant response rating (giant foxtail; [3]) | Plant response rating, Giant foxtail (giant foxtail; [4]) | Plant response rating, Giant foxtail (giant foxtail; [5]) | Giant foxtail plant response rating (giant foxtail; [6]) | Giant foxtail plant response rating (giant foxtail; [7]) | Giant foxtail plant response rating (giant foxtail; [8]) | Morningglory plant response rating (morningglory; [1]) | Morningglory plant response rating (morningglory; [2]) | Morningglory plant response rating (morningglory; [3]) | Plant response rating, Morningglory (morningglory; [4]) | Plant response rating, Morningglory (morningglory; [5]) | Morningglory plant response rating (morningglory; [6]) | Morningglory plant response rating (morningglory; [7]) | Morningglory plant response rating (morningglory; [8]) | Redroot pigweed plant response rating (pigweed; [1]) | Redroot pigweed plant response rating (pigweed; [2]) | Redroot pigweed plant response rating (pigweed; [3]) | Plant response rating, Redroot pigweed (pigweed; [4]) | Plant response rating, Redroot pigweed (pigweed; [5]) | Redroot pigweed plant response rating (pigweed; [6]) | Redroot pigweed plant response rating (pigweed; [7]) | Redroot pigweed plant response rating (pigweed; [8]) | Sugarbeets plant response rating (sugar beet; [1]) | Sugarbeets plant response rating (sugar beet; [2]) | Sugarbeets plant response rating (sugar beet; [3]) | Plant response rating, Sugarbeets (sugar beet; [4]) | Plant response rating, Sugarbeets (sugar beet; [5]) | Sugarbeets plant response rating (sugar beet; [6]) | Sugarbeets plant response rating (sugar beet; [7]) | Sugarbeets plant response rating (sugar beet; [8]) | Velvetleaf plant response rating (velvetleaf; [1]) | Velvetleaf plant response rating (velvetleaf; [2]) | Velvetleaf plant response rating (velvetleaf; [3]) | Plant response rating, Velvetleaf (velvetleaf; [4]) | Plant response rating, Velvetleaf (velvetleaf; [5]) | Velvetleaf plant response rating (velvetleaf; [6]) | Velvetleaf plant response rating (velvetleaf; [7]) | Velvetleaf plant response rating (velvetleaf; [8]) | Wheat plant response rating (wheat; [1]) | Wheat plant response rating (wheat; [2]) | Wheat plant response rating (wheat; [3]) | Plant response rating, Wheat (wheat; [4]) | Plant response rating, Wheat (wheat; [5]) | Wheat plant response rating (wheat; [6]) | Wheat plant response rating (wheat; [7]) | Wheat plant response rating (wheat; [8]) | Wild oats plant response rating (wild oat; [1]) | Wild oats plant response rating (wild oat; [2]) | Wild oats plant response rating (wild oat; [3]) | Plant response rating, Wild oats (wild oat; [4]) | Plant response rating, Wild oats (wild oat; [5]) | Wild oats plant response rating (wild oat; [6]) | Wild oats plant response rating (wild oat; [7]) | Wild oats plant response rating (wild oat; [8]) | Nutsedge plant response rating (purple nutsedge; [1]) | Nutsedge plant response rating (purple nutsedge; [2]) | Nutsedge plant response rating (purple nutsedge; [3]) | Plant response rating, Nutsedge (purple nutsedge; [4]) | Plant response rating, Nutsedge (purple nutsedge; [5]) | Nutsedge plant response rating (purple nutsedge; [6]) | Nutsedge plant response rating (purple nutsedge; [7]) | Nutsedge plant response rating (purple nutsedge; [8]) | Rice plant response rating (rice; [1]) | Rice plant response rating (rice; [9]) | Rice plant response rating (rice; [10]) | Rice plant response rating (rice; [11]) | Ducksalad plant response rating (duck salad; [1]) | Ducksalad plant response rating (duck salad; [9]) | Ducksalad plant response rating (duck salad; [10]) | Ducksalad plant response rating (duck salad; [11]) | Barnyardgrass plant response rating (bamyardgrass; [1]) | Barnyardgrass plant response rating (bamyardgrass; [9]) | Barnyardgrass plant response rating (bamyardgrass; [10]) | Barnyardgrass plant response rating (bamyardgrass; [11])
